These compounds were tested on mice (assay: Motor activity: spontaneous activity in mice (neurosedative effect)). Conditions: 55 μmol/kg intraperitoneally, male mice, 50 minutes.
Format: in vivo, mouse
Experimental: The measurement of the neurosedative effect is based on the test of activity measurements in mice. […] Five minutes after the administration, the animals are placed in activity-measuring cages, which record their movements digitally by means of the interruption of beams of light. The results are recorded in Table IX and expressed as the percentage variation (increase or decrease ) in activity compared with the controls during a period of 50 minutes following the administration.

Compound | spontaneous activity - % variation compared with the controls, decrease (.dwnarw.)
CCOC(=O)c1cn2cc(Br)nc(NC)c2n1 [Compound 23, ethyl 6-bromo-8-methylaminoimidazo[1,2-a]pyrazine-2-carboxylate] | 43%

Same assay, conditions: 166 μmol/kg intraperitoneally, male mice, 50 minutes

Compound | spontaneous activity - % variation compared with the controls, decrease (.dwnarw.)
CCOC(=O)c1cn2cc(Br)nc(NC)c2n1 [Compound 23, ethyl 6-bromo-8-methylaminoimidazo[1,2-a]pyrazine-2-carboxylate] | 56%

These compounds were tested on guinea pig trachea (assay: Isolated guinea pig trachea: anti-contractional activity against carbachol). Conditions: carbachol 10^-4 M, isolated guinea pig trachea; mean of 5 to 6 determinations.
Experimental: Guinea pigs of both sexes weighing on average 400 to 600 g are sacrificed, and the tracheas are removed and placed at 37° C. in an oxygenated environment (95% O2 -5% CO2) in Krebs fluid of the following composition (mM): NaCl (116), MgSO4 (1.2), KCl (3.7), CaCl2 (2.6), KH2 PO4 (2.2), NaHCO3 (24.9), glucose (10). The tracheal segments are then mounted horizontally between two hooks, one of which is fixed to the base of the isolated organ cell and the other is attached to a myograph under a tension of 0.5 g. The organ is left at rest for one hour and is subjected to four washes. The contraction-inducing reagent (carbachol) is added at a concentration (10^-4 M) greater than the concentration giving the maximum effect. After stabilization of the contractional effect, gradually increasing accumulative amounts of the test products are added to the cell. The bronchodilatory effect is measured as the percentage inhibition of the maximal contraction and EC50 represents the concentration inhibiting this concentration by 50%.

Compound | EC50 Theo/EC50 product (anti-contractional activity, trachea)
Nc1nccn2ccnc12 [Compound 1, 8-aminoimidazo[1,2-a]pyrazine] | 1.5
CNc1nccn2ccnc12 [Compound 2, 8-methylaminoimidazo[1,2-a]pyrazine] | < 1
CCNc1nccn2ccnc12 [Compound 3, 8-ethylaminoimidazo[1,2-a]pyrazine] | 1
c1cn2ccnc2c(N2CCOCC2)n1 [Compound 4, 8-Morpholinoimidazo[1,2-a]pyrazine] | < 1
Nc1nccn2c(Br)cnc12 [Compound 5, 8-amino-3-bromoimidazo[1,2-a]pyrazine] | 11
CCNc1nccn2c(Br)cnc12 [Compound 7] | 5
Brc1cn2ccnc2c(N2CCOCC2)n1 [Compound 11, 6-bromo-8-morpholinoimidazo[1,2-a]pyrazine] | < 1
c1coc(CNc2nccn3ccnc23)c1 [Compound 39, 8-furfurylaminoimidazo[1,2-a]pyrazine] | < 1

These compounds were tested on duodenum (assay: Antispasmodic activity: barium chloride-induced contraction of isolated rat duodenum (Magnus)). Conditions: barium chloride 10^-4 M, isolated rat duodenum, 37° C.; mean of 5 to 6 determinations.
Experimental: Fragments of duodenum are removed from male rats (200 g), fasted for 24 hours and killed by decapitation, and are mounted, after being washed, in a thermostatted (37° C.) isolated organ cell and maintained in survival in Tyrode's solution according to Magnus's classical technique.
The spasmogenic agent used is barium chloride (10^-4 M).
In the first instance, the spasmogenic agent is added to the nutrient bath and, as soon as the contraction of the organ reaches its maximum, the relaxant agent is added to the medium. Working in relation to a fixed concentration of barium chloride with variable concentrations of relaxant, the ED50 of the latter, capable of reducing the induced contraction by 50%, is determined.
The results expressed in Table IV below show the ratio ED50 Theo/ED50 product, established on the basis of the mean of the results of 5 to 6 determinations per product (ED50theophylline=8×10^-4 M).

Compound | ED50 Theo/ED50 product (antispasmodic activity)
CCNc1ncc(Cl)n2ccnc12 [Compound 12, 5-Chloro-8-ethylaminoimidazo[1,2-a]pyrazine] | 27

The compounds below were run on histamine-induced bronchoconstriction, guinea pigs (assay: Antibronchospastic activity: histamine-induced bronchospasm in anesthetized guinea pigs). Conditions: intravenous, 30 seconds before histamine; mean of 5 to 8 determinations.
Format: in vivo, guinea pig
Experimental: Guinea pigs of both sexes weighing between 400 and 600 g are anesthetized with ethyl carbamate ([…] i.p.). After tracheotomy, the animal is placed under artificial respiration at a constant flowrate (Palmer pump 1 m1/100 g×60/min). A take-off at the tracheal cannula enables the volume of air to be gaged at each inhalation by means of a Marey drum. Bronchospasm is induced by intraveneous (jugular) administration of histamine. For each animal, the dose of histamine (8 to 12 μg/kg) inducing an increase in the recording trace equal to double its initial value is determined. The dose adopted should provide three identical responses at intervals of 10 minutes.
The test product is administered intraveneously and then, 30 seconds later, histamine is administered again.

Compound | ED50 Theo/ED50 product (bronchospasm induced in guinea pigs)
Nc1nccn2c(Br)cnc12 [Compound 5, 8-amino-3-bromoimidazo[1,2-a]pyrazine] | 2
Brc1cn2ccnc2c(N2CCOCC2)n1 [Compound 11, 6-bromo-8-morpholinoimidazo[1,2-a]pyrazine] | 1
Nc1nc(Br)cn2c(Br)cnc12 [Compound 13, 8-Amino-3,6-dibromoimidazo[1,2-a]pyrazine] | 3.5
CNc1nc(Br)cn2c(Br)cnc12 [Compound 14, 3,6-dibromo-8-methylaminoimidazo[1,2-a]pyrazine] | 1.9
CCNc1nc(Br)cn2c(Br)cnc12 [Compound 15, 3,6-dibromo-8-ethylaminoimidazo[1,2-a]pyrazine] | 1.6
Brc1cn2c(Br)cnc2c(N2CCOCC2)n1 [Compound 16, 3,6-dibromo-8-morpholinoimidazo[1,2-a]pyrazine] | 1
CCOC(=O)c1cn2ccnc(NC)c2n1 [Compound 18, ethyl 8-methylaminoimidazo[1,2-a]pyrazine-2-carboxylate] | 1
CCCNc1nccn2cc(C(=O)OCC)nc12 [Compound 19, ethyl 8-propylaminoimidazo[1,2-a]pyrazine-2-carboxylate] | < 1
CCOC(=O)c1cn2ccnc(N3CCCCC3)c2n1 [Compound 20, ethyl 8-piperidylimidazo[1,2-a]pyrazine-2-carboxylate] | 1
CCOC(=O)c1cn2ccnc(N3CCOCC3)c2n1 [Compound 21, ethyl 8-morpholinylimidazo[1,2-a]pyrazine-2-carboxylate] | < 1
CCOC(=O)c1cn2cc(Br)nc(N)c2n1 [Compound 22, ethyl 8-amino-6-bromoimidazo[1,2-a]pyrazine-2-carboxylate] | 1.5
CCOC(=O)c1cn2cc(Br)nc(NC)c2n1 [Compound 23, ethyl 6-bromo-8-methylaminoimidazo[1,2-a]pyrazine-2-carboxylate] | 1
CCNc1nc(Br)cn2cc(C(=O)OCC)nc12 [Compound 24, ethyl 6-bromo-8-ethylaminoimidazo[1,2-a]pyrazine-2-carboxylate] | 1
CCCNc1nc(Br)cn2cc(C(=O)OCC)nc12 [Compound 25, ethyl 6-bromo-8-propylaminoimidazo[1,2-a]pyrazine-2-carboxylate] | < 1
CCCCNc1nc(Br)cn2cc(C(=O)OCC)nc12 [Compound 26, ethyl 6-bromo-8-butylaminoimidazo[1,2-a]pyrazine-2-carboxylate] | < 1
CCOC(=O)c1cn2cc(Br)nc(NC(C)CC)c2n1 (centres unmarked) [Compound 27, ethyl 6-bromo-8-sec-butylaminoimidazo[1,2-a]pyrazine-2-carboxylate] | < 1
CCOC(=O)c1cn2cc(Br)nc(N3CCCCC3)c2n1 [Compound 28, ethyl 6-bromo-8-piperidylimidazo[1,2-a]pyrazine-2-carboxylate] | < 1
CCOC(=O)c1cn2cc(Br)nc(N3CCOCC3)c2n1 [Compound 29, ethyl 6-bromo-8-morpholinylimidazo[1,2-a]pyrazine-2-carboxylate] | 1
CCOC(=O)c1cn2cc(Br)nc(NCCO)c2n1 [Compound 30, ethyl 6-bromo-8-(2-hydroxyethylamino)imidazo[1,2-a]pyrazine-2-carboxylate] | < 1
CNc1nc(Br)cn2cc(C(N)=O)nc12 [Compound 31, 6-Bromo-8-methylaminoimidazo[1,2-a]pyrazine-2-carboxamide] | 1
CCOC(=O)Cc1cn2cc(Br)nc(N)c2n1 [Compound 32, ethyl 8-amino-6-bromoimidazo[1,2-a]pyrazine-2-acetate] | 1.6
CCOC(=O)Cc1cn2cc(Br)nc(NC)c2n1 [Compound 33, Ethyl 6-bromo-8-methylaminoimidazo[1,2-a]pyrazine-2-acetate] | 1
CNC(=O)c1nc2c(NC)nc(Cl)c(Cl)n2c1Cl [Compound 34, 3,5,6-Trichloro-8-methylamino-N-methylimidazo[1,2-a]pyrazine-2-carboxamide] | 1.2
N#Cc1cn2cc(Br)nc(N3CCOCC3)c2n1 [Compound 35, 6-Bromo-8-morpholinoimidazo[1,2-a]pyrazine-2-carbonitrile] | < 1
Brc1cn2ccnc2c(NCc2ccco2)n1 [Compound 36, 6-bromo-8-furfurlaminoimidazo[1,2-a]pyrazine] | < 1
Brc1cn2c(Br)cnc2c(NCc2ccco2)n1 [Compound 37, 3,6-dibromo-8-furfurylaminoimidazo[1,2-a]pyrazine] | 1.4
Brc1cn2c(Br)cnc2c(N2CCCCC2)n1 [Compound 38, 3,6-dibromo-8-piperidylimidazo[1,2-a]pyrazine] | 1.1
